Measured values reported in ChEMBL document CHEMBL2396545, “Quinoline drug-heme interactions and implications for antimalarial cytostatic versus cytocidal activities” (J Med Chem, 2013).

Key:
[1] = Inhibition of hemozoin formation in 12.9 M acetate buffer at pH 4.5 at 60 degC after 1 hr by microtiter-based high-throughput assay; assay type: functional
[2] = Inhibition of hemozoin formation in 9.7 M acetate buffer at pH 4.8 at 60 degC after 2 hrs by microtiter-based high-throughput assay; assay type: functional
[3] = Inhibition of hemozoin formation in 0.5 M acetate buffer at pH 4.8 after 12 hrs by tube-based high-throughput assay; assay type: functional
[4] = Inhibition of hemozoin formation by microtiter plate-based high-throughput assay; assay type: functional
[5] = Inhibition of hemozoin formation in 0.5 M acetate buffer at pH 4.8 after 24 hrs by microtiter plate-based high-throughput assay; assay type: functional
[6] = Inhibition of hemozoin formation in 0.5 M acetate buffer at pH 4.8 after 12 hrs by microtiter plate-based high-throughput assay in presence of trophozoite lysate; assay type: functional
[7] = Inhibition of hemozoin formation in 8 M acetate buffer at pH 5 after 18 hrs by microtiter plate-based high-throughput assay; assay type: functional
[8] = Inhibition of hemozoin formation in parasite digestive vacuole extract by microtiter plate-based high-throughput assay; assay type: functional
[9] = Inhibition of hemozoin formation in acetonitrile trophozoite extract by microtiter plate-based high-throughput assay; assay type: functional
[10] = Inhibition of hemozoin formation in 0.1 M acetate buffer at pH 4.8 after 12 hrs by tube-based high-throughput assay in presence of Plasmodium yoelii homogenate; assay type: functional, tissue-based
[11] = Inhibition of hemozoin formation in 0.5 M acetate buffer at pH 4.8 after 16 hrs by tube-based high-throughput assay in presence of 0.002 mg/mL phosphatidylcholine; assay type: functional

| Compound | IC50 [1] | IC50 [2] | IC50 [3] | IC50 [4] | IC50 [5] | IC50 [6] | IC50 [7] | IC50 [8] | IC50 [9] | IC50 [10] | IC50 [11] |
| --- | --- | --- | --- | --- | --- | --- | --- | --- | --- | --- | --- |
| CCN(CC)Cc1cc(Nc2ccnc3cc(Cl)ccc23)ccc1O | 1.45 µM | 67 µM | 15.1 µM | 60 µM | 60 µM | 203 µM | 0.85 µM | 60 µM | 73 µM | – | – |
| CCN(CC)CCCC(C)Nc1ccnc2cc(Cl)ccc12 (configuration not stated) [CHLOROQUINE] | 1.91 µM | 374 µM | 24.4 µM | 45 µM | 45 µM | 400 µM | 1.63 µM | 50 µM | – | 43.8 µM | 117 µM |
| OC(c1cc(C(F)(F)F)nc2c(C(F)(F)F)cccc12)C1CCCCN1 (configuration not stated) [MEFLOQUINE] | 2.9 µM | 476 µM | 46.9 µM | 120 µM | 120 µM | 200 µM | 6.18 µM | 80 µM | 140 µM | – | – |
| C=C[C@H]1CN2CC[C@H]1C[C@H]2[C@H](O)c1ccnc2ccc(OC)cc12 [QUININE] | 3.5 µM | – | 64.8 µM | 160 µM | 160 µM | 430 µM | – | 100 µM | 78 µM | 41.6 µM | 201 µM |
